The values that follow are results of earlier work, collected in US20130236544A1, “STABLE PHARMACEUTICAL COMPOSITIONS OF FESOTERODINE” (DR. REDDY'S LABORATORIES LTD., priority 2012, published 2013).

Structures can show the parent of a compound that is named as a salt.

As for `CC(C)C(=O)Oc1ccc(CO)cc1[C@H](CCN(C(C)C)C(C)C)c1ccccc1` [Fesoterodine fumarate, isobutyric acid 2-((R)-3-diisopropylammonium-1-phenylpropyl)-4-(hydroxymethyl) phenyl ester hydrogen fumarate], the solubility in water result is “freely soluble in water”.
